The structures appear in SMILES notation.

In ChEMBL document CHEMBL3727361, “Nitrogen bicyclic compounds as inhibitors for Scyl1 and Grk5” (2014) one finds Activity data, which are given here for 70 molecules.

The test concerns Beta-TC6. Description: Increase in insulin release in mouse BetaTC6 cells assessed as relative insulin release activity at 10 uM incubated for 2 to 4 hrs by FRET based HTRF assay relative to sunitinib. In kind it is functional.
On to `COc1ccc(-c2cnc3ccc(N[C@H](CO)C(C)C)nn23)c(OC)c1`, for which the Activity was 20%.

As for `OCc1cccc(-c2cnc3cnc(-c4cccs4)cn23)c1`, the Activity is reported as 20%.

`COc1cccc(CC(=O)Nc2cnc3cnc(-c4cccs4)cn23)c1`: the Activity was 20%.

On to `COc1ccc(-c2ccc3nnc(-c4ccoc4)n3c2)cc1`, for which the Activity turned out to be 50%.

With `Fc1cccc(-c2ccc3ncc(-c4ccc5c(c4)OCO5)n3n2)c1`, the Activity came out at 20%.

Turning to `COCCNc1ccc2ncc(-c3ccc(C(=O)Nc4ccc(OC)cc4)cc3)n2n1`, the Activity was determined as 20%.

In the case of `Clc1cccc(-c2nnc3ccc(-c4ccoc4)cn23)c1`, the Activity worked out at 50%.

On to `Cc1ccccc1-c1nnc2ccc(-c3ccc(C(N)=O)cc3)cn12`, for which the Activity was found to be 20%.

In the case of `Cc1ccccc1-c1cn2c(-c3ccc4c(c3)OCO4)cnc2cn1`, the Activity was 20%.

Regarding `FC(F)(F)c1cccc(-c2cnc3ccc(-c4ccncc4)nn23)c1`, the Activity is listed as 20%.

On to `N#Cc1ccc(-c2cnc3cnc(-c4ccsc4)cn23)cc1`, for which the Activity came out at 20%.

For `CN(C)c1cccc(-c2cnc3cnc(-c4cccs4)cn23)c1`, the Activity was found to be 20%.

Take `COc1ccc(CNc2ccc3ncc(-c4ccc(O)cc4)n3n2)cc1`: the Activity is 20%.

As to `c1cnc2cc(-c3nnc4ccc(-c5ccoc5)cn34)ccc2n1`, the Activity is reported as 50%.

For the molecule `CC(C)Oc1cccc(-c2cn3c(-c4cccs4)cnc3cn2)c1`, the Activity was 20%.

Turning to `CN(C)c1ccccc1-c1cn2c(-c3cccs3)cnc2cn1`, the Activity was 20%.

Regarding `COc1cc(-c2ccc3ncc(-c4ccc(F)c(Cl)c4)n3n2)cc(OC)c1OC`, the Activity came to 10%.

`Nc1cccc(-c2cnc3ccc(NC4CCOCC4)nn23)c1`: the Activity came to 20%.

Take `c1csc(-c2cn3c(-c4cccs4)cnc3cn2)c1`: the Activity is on record as 50%.

With `CN(C)C(=O)c1ccc(-c2cnc3cnc(-c4ccc5c(ccn5C)c4)cn23)cc1`, the Activity worked out at 20%.

With `O=C(NC1CC1)c1ccc(-c2cn3c(-c4ccc(O)cc4)cnc3cn2)cc1`, the Activity is given as 20%.

For the molecule `Oc1cccc(-c2cnc3cnc(-c4cc5ccccc5s4)cn23)c1`, the Activity is reported as 50%.

For the molecule `c1ccc(-c2cnc3cnc(-c4cccs4)cn23)cc1`, the Activity was found to be 20%.

Turning to `c1coc(-c2cn3c(-c4ccsc4)cnc3cn2)c1`, the Activity is on record as 20%.

Turning to `COc1ccc(-c2cn3c(-c4ccc(N(C)C)cc4)cnc3cn2)cn1`, the Activity came to 50%.

For the molecule `c1cc2c(cc1CNc1ccc3ncc(-c4ccc(N5CCOCC5)cc4)n3n1)OCO2`, the Activity is on record as 20%.

Turning to `OCc1cccc(-c2ccc3nnc(-c4ccccn4)n3c2)c1`, the Activity is given as 20%.

As for `O=C(c1ccc(-c2ccc3nnc(-c4cccc(C(F)(F)F)c4)n3c2)cc1)N1CCOCC1`, the Activity is 20%.

`CC(=O)Nc1cccc(-c2cnc3ccc(-c4cccnc4)nn23)c1`: the Activity is on record as 10%.

For the molecule `COc1cncc(-c2cnc3ccc(Cc4ccc(F)cc4)nn23)c1`, the Activity amounted to 20%.

With `COc1ccc(CNc2ccc3ncc(-c4ccc5[nH]ccc5c4)n3n2)cc1`, the Activity is listed as 20%.

In the case of `CC(=O)Nc1cccc(-c2cn3c(-c4ccc(F)c(Cl)c4)cnc3cn2)c1`, the Activity is 20%.

As for `CC(C)N1CCN(c2ccc(-c3cn4c(-c5ccc(O)cc5)cnc4cn3)cc2)CC1`, the Activity is given as 20%.

Regarding `Fc1cccc(-c2cnc3cnc(-c4ccccc4)cn23)c1`, the Activity stood at 20%.

On to `O=S1(=O)CCN(CC#Cc2ccc3nnc(-c4cscn4)n3c2)CC1`, for which the Activity amounted to 10%.

In the case of `Fc1cccc(-c2cnc3cnc(-c4ccc(N5CCNCC5)cc4)cn23)c1`, the Activity is on record as 10%.

Consider `COc1cccc(CC(=O)Nc2cnc3cnc(-c4ccc5[nH]ccc5c4)cn23)c1`, for which the Activity came to 10%.

Consider `COc1ccc(-c2ccc3ncc(-c4cccc(Cl)c4)n3n2)cc1OC`, for which the Activity is reported as 20%.

In the case of `COc1cc(C#Cc2ccc3nnc(-c4ccc(OCCCN(C)C)cc4)n3c2)cc(OC)c1`, the Activity is 20%.

On to `OCc1ccc(-c2cnc3cnc(-c4ccco4)cn23)cc1`, for which the Activity is 20%.

On to `O=C(NC1CC1)c1ccc(-c2cnc3cccnn23)cc1`, for which the Activity stood at 10%.

On to `OCc1ccc(-c2cnc3ccc(-c4cncnc4)nn23)cc1`, for which the Activity is reported as 10%.

Consider `O=C(NC1CCCC1)c1ccc(-c2cn3c(-c4ccc(CO)cc4)cnc3cn2)cc1`, for which the Activity is 20%.

Consider `Oc1ccc(-c2cn3c(-c4cccs4)cnc3cn2)cc1`, for which the Activity came to 50%.

As for `Cn1cc(-c2ccc3nnc(-c4ccc5c(c4)OCO5)n3c2)cn1`, the Activity came to 50%.

On to `CN(C)/C(=C1\N=C(c2ccccc2)OC1=O)c1cnc2cccnn12`, for which the Activity amounted to 10%.

Turning to `OCC#Cc1ccc2nnc(-c3ccc4c(c3)OCO4)n2c1`, the Activity turned out to be 20%.

For `OCc1ccc(-c2ccc3ncc(-c4cccnc4)n3n2)cc1`, the Activity is reported as 20%.

For the molecule `COc1cc(-c2cn3c(-c4ccccc4Cl)cnc3cn2)ccc1O`, the Activity was determined as 20%.

With `COc1cncc(-c2ccc3nnc(-c4cccc(OC(F)(F)F)c4)n3c2)c1`, the Activity came to 50%.

Consider `COc1ccccc1-c1ccc2ncc(-c3cccc(OC(F)(F)F)c3)n2n1`, for which the Activity stood at 10%.

Consider `FC(F)(F)Oc1cccc(-c2ccc3nnc(-c4ccncc4)n3c2)c1`, for which the Activity amounted to 20%.

Take `Oc1cccc(-c2cnc3cnc(-c4cccs4)cn23)c1`: the Activity is reported as 20%.

In the case of `OCc1ccc(-c2cnc3cnc(-c4ccc(Cl)cc4Cl)cn23)cc1`, the Activity is 20%.

Regarding `CC(=O)Nc1cccc(-c2ccc3nnc(-c4ccc5nccnc5c4)n3c2)c1`, the Activity is 50%.

`CS(=O)(=O)c1cccc(-c2ccc3nnc(-c4ccccn4)n3c2)c1`: the Activity came to 20%.

Turning to `OCc1ccc(-c2ccc3nnc(-c4ccncc4)n3c2)cc1`, the Activity was found to be 20%.

With `c1cnc2ccc(-c3ccc4nnc(-c5cscn5)n4c3)cc2c1`, the Activity turned out to be 50%.

As for `c1csc(-c2cn3c(-c4ccsc4)cnc3cn2)c1`, the Activity was 50%.

Turning to `Cc1cc(-c2cnc3cccnn23)cc(C)c1O`, the Activity is recorded as 10%.

Take `COc1cc(-c2nnc3ccc(-c4ccc(N5CCN(C)CC5)cc4)cn23)ccc1O`: the Activity came to 20%.

For the molecule `c1csc(-c2cnc3cnc(-c4cc5ccccc5s4)cn23)c1`, the Activity is 50%.

Consider `CC(C)Oc1cccc(-c2cn3c(-c4ccc5c(c4)OCO5)cnc3cn2)c1`, for which the Activity is 50%.

`COc1ccc(-c2cnc3ccc(NCc4ccccn4)nn23)cc1OC`: the Activity stood at 20%.

Turning to `COc1cc(OC)cc(-c2cn3c(-c4cccc(O)c4)cnc3cn2)c1`, the Activity was found to be 20%.

Regarding `CS(=O)(=O)Nc1cccc(-c2ccc3ncc(-c4ccncc4)n3n2)c1`, the Activity was determined as 20%.

In the case of `CN(C)CCCNC(=O)c1ccc(-c2cn3c(-c4ccc(N(C)C)cc4)cnc3cn2)cc1`, the Activity came to 50%.

With `Clc1ccc(-c2cnc3cnc(-c4cccs4)cn23)cc1`, the Activity amounted to 20%.

As to `COc1cc(OC)cc(-c2cn3c(-c4cccc(N(C)C)c4)cnc3cn2)c1`, the Activity was found to be 20%.

As for `CCOc1cccc(-c2cn3c(-c4cccc(CO)c4)cnc3cn2)c1`, the Activity worked out at 20%.
